The text below walks through data of ChEMBL document CHEMBL1782024, “Chisomicines A-C, limonoids from Chisocheton ceramicus” (J Nat Prod, 2011).

The test system of one data set is J774.1. Put plainly: Inhibition of LPS-induced nitric oxide production in mouse J774.1 cells after 24 hrs by griess assay. The format is functional, cell-based. To be noted: for IC50: J774.1, 24 h. For orientation: Griess reagent forms a coloured azo dye with nitrite.
Data set [1] is described as follows: Cytotoxicity against mouse J774.1 cells after 2 hrs by MTT assay. The format is cell-based. The settings on record: j774.1, 2 h. Background: Formazan colour is commonly taken as a measure of viable cells.

Active and inactive are the calls of the source. No cut-off for these calls is given here.

The term IC50 denotes the concentration needed to halve the response being measured. With `C/C=C(\C)C(=O)O[C@@H]1/C=C\C2=C3CC(=O)O[C@@H](c4ccoc4)[C@]3(C)CC[C@@H]2[C@@]2(C)C(=O)C[C@]1(C)[C@@H]2CC(=O)OC` [CHISOMICINE A], half-maximal inhibition in the data set with J774.1 (IC50) was put at 20.2 µM. Moreover, the Activity result in data set [1] was “Toxic”.
`C/C=C(\C)C(=O)O[C@@H]1C2[C@H]3O[C@]34[C@@H]3CC(=O)O[C@@H](c5ccoc5)[C@]3(C)CC[C@@H]4[C@@]3(C)[C@@H](CC(=O)OC)[C@@]1(C)C[C@@]23O` (some centres not stated): the inhibition result in the data set with J774.1 is “inactive”.
Still for that read-out and setting: the same measure for `C/C=C(\C)C(=O)O[C@@H]1C2C=C3[C@H](CC[C@@]4(C)[C@H](c5ccoc5)OC(=O)C[C@@]34O)[C@@]3(C)[C@@H](CC(=O)OC)[C@@]1(C)CO[C@@]23O`: “inactive”; for `COC(=O)C[C@H]1C(C)(C)[C@@H]2O[C@@]34C[C@@H]2C(=O)[C@]1(C)[C@H]3CC[C@]1(C)C4CC(=O)O[C@@H]1c1ccoc1` (some centres not stated): “inactive”.
In the data set with J774.1, `CNC(=N)NCCC[C@H](N)C(=O)O` [TILARGININE] displayed a 50% inhibitory concentration (IC50) of 13.8 µg/mL.
With `COC(=O)C[C@H]1C(C)(C)[C@H](O)[C@@H]2CC3=C4CC(=O)O[C@@H](c5ccoc5)[C@]4(C)CC[C@@H]3[C@@]1(C)C2=O`, the inhibition entry with J774.1 is “inactive”.
